According to patent US8084645B2, “4-phenylamino-benzaldoxime derivatives and uses thereof as mitogen-activated protein kinase kinase (MEK) inhibitors” (Chugai Seiyaku Kabushiki Kaisha, priority 2003, dated 2011):
≈ marks a conversion by molar mass, not a printed value. Where two headings read alike, the source gives them in different places.

Columns and labels:
[1] = system: Human colon cancer cell line HT-29; test: Determination of the activity of inhibiting cell proliferation (Cell Counting Kit-8); type: cell-based; conditions: HT-29, 96 h, HT29, 2,000 cells/well, incubated four days, read-out: Cell proliferation inhibitory activity (HT29) IC50
Experimental: Human colon cancer cell line HT-29, obtained from American Type Culture Collection (VA, USA), and human non-small cell lung cancer cell line QG56, obtained from Immuno-Biological Laboratories Co., Ltd., were plated at 2,000 cells/well in a 96-well culture plate, and incubated for four days after addition of a MEK inhibitor of a given concentration.

[2] = Determination of stability against mouse liver microsomes; type: in vitro ADME; conditions: mouse liver microsomes 1 mg protein/mL, 2 mM NADPH, pH 7.4, 37 C; read-out: Stability against mouse liver microsome NADPH+ T1/2
Experimental: (§1) The enzyme reaction was quenched with three volumes of acetonitrile, and the reaction mixture was centrifuged at 1,500 rpm for ten minutes to provide a supernatant as a sample to be measured. Stability against mouse liver microsomes was measured using HPLC/MS to determine the compounds in the sample.

[3] = Determination of stability against human liver microsomes; type: in vitro ADME; conditions: human liver microsomes 1 mg protein/mL, 2 mM NADPH, pH 7.4, 37 C; read-out: Stability against human liver microsome NADPH+ T1/2
Experimental: as §1, with “human” for “mouse”

[4] = Determination of water solubility (equilibrium stirring method); type: physicochemical; conditions: for solubility at 2 h: aqueous buffer, thermodynamic from solid, read-out: Water solubility (LySA PH 6.5)
Experimental: The vessels were sealed, and the contents were sonicated at room temperature (20° C.) for ten minutes, and then stirred with a stirrer for two hours. After reaching solution equilibrium, the solution was separated with a membrane filter, and the solute concentration was determined using HPLC.

MEK = MEK (Homo sapiens, UniProt Q02750); test: Determination of MEK inhibitory activities (Raf-1 kinase cascade assay, MBP phosphorylation, 33P-ATP)
Sequence of MEK (Q02750 whole entry): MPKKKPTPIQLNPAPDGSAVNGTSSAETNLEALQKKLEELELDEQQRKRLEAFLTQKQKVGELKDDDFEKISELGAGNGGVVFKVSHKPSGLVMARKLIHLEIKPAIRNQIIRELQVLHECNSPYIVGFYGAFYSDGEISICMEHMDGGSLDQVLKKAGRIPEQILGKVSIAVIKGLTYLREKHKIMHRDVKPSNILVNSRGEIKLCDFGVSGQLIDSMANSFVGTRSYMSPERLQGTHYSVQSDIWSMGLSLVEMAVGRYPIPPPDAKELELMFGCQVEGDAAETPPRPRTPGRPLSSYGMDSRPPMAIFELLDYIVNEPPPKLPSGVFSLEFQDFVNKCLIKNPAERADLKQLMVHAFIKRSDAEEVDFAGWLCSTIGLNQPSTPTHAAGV
From the text: The radioisotope used was [γ^33P]-ATP (Amersham Biosciences, K.K.).

[5] = 50 mM phosphate buffer pH 6.5, room temperature (20 C)

SMILES | IC50 [1] [nM] | half-life [2] [h] | half-life [3] [h] | solubility at 2 h [4, 5] [µM] | IC50 (MEK) [nM] | Water solubility (LySA PH 6.5) [4, 5] [µM] | solubility at 2 h ([4]; phosphate buffer, 20 °C, at pH 6.08) [µM] | solubility at 2 h ([4]; phosphate buffer, 20 °C, at pH 6.87) [µM]
C#Cc1ccc(Nc2c(C(=O)NOCCO)cc(/C=N/OCCO)c(F)c2F)c(F)c1 [Compound 2, (E)-2-(4-ethynyl-2-fluoro-phenylamino)-3,4-difluoro-N-(2-hydroxy-ethoxy)-5-[(2-hydroxy-ethoxyimino)-methyl]-benzamide] | 150 | 2.25 | 1.34 | – | 240 | 415 | – | –
O=C(NOCCO)c1cc(/C=N/O)c(F)c(F)c1Nc1ccc(I)cc1F [Compound 3, (E)-3,4-difluoro-2-(2-fluoro-4-iodo-phenylamino)-N-(2-hydroxy-ethoxy)-5-(hydroxyiminomethyl)-benzamide] | 65 | 0.97 | 1.55 | 6.4 (≈ 3.17 µg/mL) | 78 | – | – | –
O=C(NOCCO)c1cc(/C=N/OCCCO)c(F)c(F)c1Nc1ccc(I)cc1F [Compound 4, (E)-3,4-Difluoro-2-(2-fluoro-4-iodo-phenylamino)-N-(2-hydroxy-ethoxy)-5-[(3-hydroxy-propoxyimino)-methyl]-benzamide] | 45 | > 6 | > 6 | – | 69 | – | 3.8 (≈ 2.1 µg/mL) | –
CC(O)CO/N=C/c1cc(C(=O)NOCCO)c(Nc2ccc(I)cc2F)c(F)c1F (stereo not drawn) [Compound 15, (E)-3,4-difluoro-2-(2-fluoro-4-iodo-phenylamino)-N-(2-hydroxy-ethoxy)-5-[(2-hydroxy-propoxyimino)-methyl]-benzamide] | 137 | 0.978 | 2.67 | 8 (≈ 4.43 µg/mL) | 110 | – | – | –
CN(C)CCO/N=C/c1cc(C(=O)NOCCO)c(Nc2ccc(I)cc2F)c(F)c1F [Compound 16, (E)-5-[(2-dimethylamino-ethoxyimino)-methyl]-3,4-difluoro-2-(2-fluoro-4-iodo-phenylamino)-N-(2-hydroxy-ethoxy)-benzamide] | 210 | 3.08 | > 6 | 2400 (≈ 1360 µg/mL) | 244 | – | – | –
O=C(NOCCO)c1cc(/C=N/OCCN2CCOCC2)c(F)c(F)c1Nc1ccc(I)cc1F [Compound 18, (E)-3,4-difluoro-2-(2-fluoro-4-iodo-phenylamino)-N-(2-hydroxy-ethoxy)-5-[(2-morpholin-4-yl-ethoxyimino)-methyl]-benzamide] | 140 | > 6 | > 6 | 164 (≈ 99.8 µg/mL) | 262 | – | – | –
O=C(NOCCO)c1cc(/C=N/OCCN2CCCC2)c(F)c(F)c1Nc1ccc(I)cc1F [Compound 21, (E)-3,4-difluoro-2-(2-fluoro-4-iodo-phenylamino)-N-(2-hydroxy-ethoxy)-5-[(2-pyrrolidin-1-yl-ethoxyimino)-methyl]-benzamide] | 651 | > 6 | > 6 | 1480 (≈ 879 µg/mL) | 802 | – | – | –
CC(=O)NCCO/N=C/c1cc(C(=O)NOCCO)c(Nc2ccc(I)cc2F)c(F)c1F [Compound 24, (E)-5-[(2-acetylamino-ethoxyimino)-methyl]-3,4-difluoro-2-(2-fluoro-4-iodo-phenylamino)-N-(2-hydroxy-ethoxy)-benzamide] | 86 | > 6 | > 6 | – | 48 | 16 | – | –
CC(=O)N(C)CCO/N=C/c1cc(C(=O)NOCCO)c(Nc2ccc(I)cc2F)c(F)c1F [Compound 25, (E)-5-{[2-(acetyl-methyl-amino)-ethoxyimino]-methyl}-3,4-difluoro-2-(2-fluoro-4-iodo-phenylamino)-N-(2-hydroxyethoxy)-benzamide] | 44 | 3.3 | 0.813 | 54 (≈ 32.1 µg/mL) | 30 | – | – | –
C#Cc1ccc(Nc2c(C(=O)NOCCO)cc(/C=N/OCCC(=O)NC)c(F)c2F)c(F)c1 [Compound 41, (E)-2-(4-ethynyl-2-fluoro-phenylamino)-3,4-difluoro-N-(2-hydroxy-ethoxy)-5-[(2-methylcarbamoyl-ethoxyimino)-methyl]-benzamide] | 186 | 3.54 | > 6 | 347 (≈ 166 µg/mL) | 64.7 | – | – | –
CN(C)C(=O)CCO/N=C/c1cc(C(=O)NOCCO)c(Nc2ccc(I)cc2F)c(F)c1F [Compound 42, (E)-3,4-difluoro-2-(2-fluoro-4-iodo-phenylamino)-N-(2-hydroxy-ethoxy)-5-[dimethylcarbamoylethoxyimino-methyl]-benzamide] | 91 | > 6 | 1.74 | 29 (≈ 17.2 µg/mL) | 56 | – | – | –
CNC(=O)CCCO/N=C/c1cc(C(=O)NOCCO)c(Nc2ccc(I)cc2F)c(F)c1F [Compound 44] | 328 | > 6 | > 6 | 6 (≈ 3.57 µg/mL) | 25 | – | – | –

The remaining compounds from weak to strong by IC50 [1], led by results:

IC50 [1] [nM] | half-life [2] [h] | half-life [3] [h] | solubility at 2 h [4, 5] [µM] | IC50 (MEK) [nM] | Water solubility (LySA PH 6.5) [4, 5] [µM] | solubility at 2 h ([4]; phosphate buffer, 20 °C, at pH 6.08) [µM] | solubility at 2 h ([4]; phosphate buffer, 20 °C, at pH 6.87) [µM] | SMILES
750 | > 6 | > 6 | 2910 (≈ 1810 µg/mL) | 693 | – | – | – | O=C(NOCCO)c1cc(/C=N/OCCN2CCC(O)CC2)c(F)c(F)c1Nc1ccc(I)cc1F [Compound 19, (E)-3,4-difluoro-2-(2-fluoro-4-iodo-phenylamino)-N-(2-hydroxy-ethoxy)-5-{[2-(4-hydroxy-piperidin-1-yl)-ethoxyimino]-methyl}-benzamide]
643 | > 6 | > 6 | 1830 (≈ 1140 µg/mL) | 696 | – | – | – | O=C(NOCCO)c1cc(/C=N/OCCN2CCC[C@H]2CO)c(F)c(F)c1Nc1ccc(I)cc1F [Compound 20, (E)-3,4-difluoro-2-(2-fluoro-4-iodo-phenylamino)-N-(2-hydroxy-ethoxy)-5-{[2-((S)-hydroxymethyl-pyrrolidin-1-yl)-ethoxyimino]-methyl}-benzamide]
170 | > 6 | 4.12 | – | 150 | – | – | 426 (≈ 192 µg/mL) | C#Cc1ccc(Nc2c(C(=O)NOCCO)cc(/C=N/OCCCO)c(F)c2F)c(F)c1 [Compound 5, (E)-2-(4-Ethynyl-2-fluoro-phenylamino)-3,4-Difluoro-N-(2-hydroxy-ethoxy)-5-[(3-hydroxy-propoxyimino)-methyl]-benzamide]
80 | 3.94 | 1.08 | – | 100 | 8.3 | – | – | O=C(NOCCO)c1cc(/C=N/OCCO)c(F)c(F)c1Nc1ccc(I)cc1F [Compound 1, (E)-3,4-difluoro-2-(2-fluoro-4-iodo-phenylamino)-N-(2-hydroxy-ethoxy)-5-[(2-hydroxy-ethoxyimino)-methyl]-benzamide]
77 | > 6 | > 6 | 57 (≈ 32.3 µg/mL) | 119 | – | – | – | CNC(=O)CO/N=C/c1cc(C(=O)NOCCO)c(Nc2ccc(I)cc2F)c(F)c1F [Compound 43, (E)-3,4-difluoro-2-(2-fluoro-4-iodo-phenylamino)-N-(2-hydroxy-ethoxy)-5-[methylcarbamoylmethoxyimino-methyl]-benzamide]
69 | > 6 | 2.41 | 10 (≈ 6.07 µg/mL) | 203 | – | – | – | O=C(NOCCO)c1cc(/C=N/OCCN2CCNC2=O)c(F)c(F)c1Nc1ccc(I)cc1F [Compound 27, (E)-3,4-difluoro-2-(2-fluoro-4-iodo-phenylamino)-N-(2-hydroxy-ethoxy)-5-{[2-(2-oxo-imidazolidin-1-yl)-ethoxyimino]-methyl}-benzamide]
50 | > 6 | > 6 | < 31.3 | 20 | – | – | – | O=C(NOCCO)c1cc(/C=N/OCc2ncc[nH]2)c(F)c(F)c1Nc1ccc(I)cc1F [Compound 28, (E)-3,4-difluoro-2-(2-fluoro-4-iodo-phenylamino)-N-(2-hydroxy-ethoxy)-5-[(1H-imidazol-2-ylmethoxyimino)-methyl]-benzamide]
37 | 0.79 | 0.91 | 127 (≈ 72.3 µg/mL) | 27 | – | – | – | O=C(NOCC(O)CO)c1cc(/C=N\OCCO)c(F)c(F)c1Nc1ccc(I)cc1F (racemic) [Compound 58, dl-(Z)—N-(2,3-dihydroxy-propoxy)-3,4-difluoro-2-(2-fluoro-4-iodo-phenylamino)-5-[(2-hydroxy-ethoxyimino)-methyl]-benzamide]
36 | > 6 | > 6 | 146 (≈ 78.6 µg/mL) | 75 | – | – | – | NCCO/N=C/c1cc(C(=O)NOCCO)c(Nc2ccc(I)cc2F)c(F)c1F [Compound 22, (E)-5-[(2-amino-ethoxyimino)-methyl]-3,4-difluoro-2-(2-fluoro-4-iodo-phenylamino)-N-(2-hydroxy-ethoxy)-benzamide]
